Laboratory results: US20110124607A1, “COMPOSITION FOR REGULATION CELLULAR SENESCENCE COMPRISING LYSOPHOSPHATIDIC ACID AND INHIBITOR OF ADENYLYL CYCLASE AS ACTIVE INGREDIENTS” (priority 2008, published 2011)

How the values were obtained:
Type in all cases: cell-based, human
p21waf1/cip1 = experiment: Immunofluorescent staining of p21; conditions: 30 μM LPA, 300 μM ACI, day 2 and day 4
Method: FIG. 3 is a set of photographs illustrating the effect of LPA and ACI on the expressions of p21 and cyclin-D1 in young and senescent cells. Particularly, a-f, g-l and m-r are photographs illustrating that sub-cultured young cells (PD 20: Y) and senescent cells (PD 65: S) were serum-starved for 48 hours respectively, followed by treatment of LPA (a-f) and ACI (g-l) singly or together (m-r), and after culturing for 1, 2, and 4 days, the cells were fixed in 4% hydrogen peroxide, and stained with p21waf1/cip1 (A) and cyclin D1 (B) antibodies, followed by confirming immunofluorescence. At this time, nucleus was stained with DAPI.
Coverslips were placed on 24 well plate on which required amounts of young and senescent cells were distributed. Media were eliminated and the treated cells were washed with PBS twice. Then, the cells were fixed with 4% hydrogen peroxide. Non-specific protein staining was blocked using PBS containing 2% BSA (blocking serum). The cells were stained with primary antibody such as anti-AMPKα, anti-p-Thr172-AMPKα, anti-p-Ser485/491-AMPKα, anti-p53, anti-p-Ser15-p53, anti-p21waf1/cip1, and anti-cyclin D1. To stain nucleus, DAPI (1:1000) was also added, followed by observation under Zeiss LSM 510 laser scanning microscope.
Cells were treated with 30 μM of LPA, 300 μM of ACI or LPA+ACI for 4 days, followed by immunofluorescence to investigate p21 and cyclin D1 expressions (FIG. 3A). As a result, when young cells were treated with ACI alone or LPA+ACI, p21 expression was increased on day 2 and day 4 (FIG. 3A).

p-Ser15-p53 = experiment: Immuno-blotting of p-Ser15-p53; conditions: for p-Ser15-p53 expression after suppressing PKA: senescent cells pre-treated with 10 mM PKA inhibitor Rp-cAMP for one hour; for p-Ser15-p53 expression: senescent cells, 30 μM LPA, 300 μM ACI, 10 mM AMPKI, 10 mM AICAR
Method: (A) and (B): Young and senescent cells were serum-starved for 2 days, followed by treatment with 10 mM of AMPK inhibitor […]) or 10 mM of AMPK activator AICAR(B) for 4 days. Proteins were extracted from the treated cells and the levels of AMPKα and p-Thr172-AMPKα, total p53, p-Ser15-p53 and […] measured by immuno-blotting. (C) and (D): Young cells (C) and senescent cells (D) were treated with 10 mM AMPKI or 10 mM AICAR and cultured for 4 days, followed by measurement of cell proliferation by cell counting. At this time, the experiment was repeated three times (p<0.001). (A) and (B) are photographs illustrating the results of immuno-blotting. Precisely, sub-cultured young cells (PD 18: A) and senescent cells (PD 64: B) were treated with 30 μM of LPA […] and ACI singly or together, followed by further culture for 1, 2, and 4 days. Proteins were extracted from the cultured cells and the levels of AMPKα, […] β-actin were quantified by immuno-blotting. (A) and (B) are photographs illustrating the results of immuno-blotting. Precisely, senescent cells (PD 64) were pre-treated with 10 mM of PKA inhibitor Rp-cAMP for one hour, followed by treatment with LPA(A) or ACI(B). After culturing the cells for 1, 2, and 4 days, proteins were extracted from the cultured cells and the levels of AMPKα, […] β-actin were quantified by immuno-blotting using 45 μg of the protein. To analyse protein expression, human fibroblasts were lysed in cold lysis buffer (25 mM Hepes, pH 8.0, 150 mM NaCl, 1 mM EDTA, 1 mM Na3VO4, 1 mM NaF, 1% Triton X-100 and protease inhibitors), followed by centrifugation at 4° C. at 9,000 rpm for 10 minutes to obtain supernatant. Protein in the extract was quantified […]. SDS-PAGE electrophoresis was performed with equal amount of the protein (45 μg) to separate. The separated protein was transferred onto NC membrane from the electrophoresis gel. Non-specific protein binding was blocked by blocking the blot (transferred NC membrane) using TTBS […] containing 5% skim milk for one hour. Then, antigen-antibody reaction was induced with diluted primary antibody at 4° C. for overnight. The blot was washed with TTBS, followed by reaction with horseradish peroxidase conjugated anti-IgGs diluted in TTBS containing 5% skim milk (1:5000) at room temperature for one hour. The blot was washed again with TTBS to eliminate non-specific binding of antigen-antibody. Photographs were developed/printed on X-ray film (Kodak) using ECL kit (Pierce) containing peroxidase substrate to identify each protein.

LKB1 = experiment: Immuno-blotting of LKB1; conditions: 1, 2, 4 days
Method: FIG. 8 is a set of photographs illustrating the effects of LPA and ACI on LKB1 phosphorylation in senescent cells. Precisely, sub-cultured young cells (PD 18) and senescent cells (PD64) were treated with 30 μM of LPA or 300 μM of LPA and ACI singly or together. After culturing the cells for 1, 2, and 4 days, proteins were extracted from the cultured cells and the levels of LKB1, p-Ser431-LKB1 and β-actin were quantified by immuno-blotting using 45 μg of the protein.
To analyse protein expression, human fibroblasts were lysed in cold lysis buffer (25 mM Hepes, pH 8.0, 150 mM NaCl, 1 mM EDTA, 1 mM Na3VO4, 1 mM NaF, 1% Triton X-100 and protease inhibitors), followed by centrifugation at 4° C. at 9,000 rpm for 10 minutes to obtain supernatant. Protein in the extract was quantified […]. SDS-PAGE electrophoresis was performed with equal amount of the protein (45 μg) to separate. The separated protein was transferred onto NC membrane from the electrophoresis gel. Non-specific protein binding was blocked by blocking the blot (transferred NC membrane) using TTBS […] containing 5% skim milk for one hour. Then, antigen-antibody reaction was induced with diluted primary antibody at 4° C. for overnight. […]

Molecule | p21 expression (immunofluorescence) (p21waf1/cip1; senescent cells) | p21 expression (immunofluorescence) (p21waf1/cip1; young cells) | p-Ser15-p53 expression after suppressing PKA (p-Ser15-p53) | p-Ser15-p53 expression (p-Ser15-p53) | LKB1 expression (LKB1; senescent cells, 300 μM ACI) | LKB1 expression (LKB1; young cells, 30 μM LPA)
Nc1ncnc2c1ncn2C1CCCO1 (stereo not drawn) [ACI, 9-(tetrahydro-2′-furyl)adenine] | reduced | increased | not changed | reduced | reduced | –
lysophosphatidic acid [LPA] | – | decrease | not changed at all | reduced | – | not changed
